Some test systems named below: HCT-15; SF-268; LOX IMVI; A498; SF-295; HOP-62; HOP-92; OVCAR-4; NCI/ADR-RES; RXF 393; TK-10; ACHN; OVCAR-5; UACC-257; Hs-578T; KM12; OVCAR-3; SNB-19; SK-OV-3.
Holding throughout (assay): growth of human tumour cells (NCI), 48 h

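Assay format: 96-well plates, 48-hour exposure. Here, GI50 denotes the concentration required for 50% inhibition of growth.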 Active and inactive are the calls of the source. No stated cut-off is given here; in the data, active = GI50 up to about 1.1 µM and inactive = higher.

With `COC(=O)C1(O)c2ccccc2N=C2C(=O)c3ccccc3N21` (centres undefined) [METHYLISATOID], the GI50 was more than 100 µM in the test on HCT-15; > 100 µM (inactive) in the test on SF-268; 59.7 µM (inactive) in the test with LOX IMVI; > 100 µM (inactive) with A498; > 100 µM (inactive) in the test on SF-295; > 100 µM (inactive) in the test with HOP-62. Besides, the GI50 with HOP-92, in the test on OVCAR-4, in the test on NCI/ADR-RES, with RXF 393, in the test on TK-10 and in the test on ACHN was > 100 µM (inactive) each time. Moreover, the GI50 in the test with OVCAR-5 was > 100 µM (inactive); in the test on UACC-257 it was 23.8 µM (inactive); in the test with Hs-578T, > 100 µM (inactive); with KM12 it was > 100 µM (inactive); in the test on OVCAR-3, 45.3 µM (inactive).

Consider `COc1cc(S(=O)(=O)N/N=C/C=C/c2ccccc2)c(OC)cc1NC(C)=O`, for which the GI50 in the test with HCT-15 was 19.5 µM; in the test with SF-268 it was 35.4 µM (inactive); in the test with LOX IMVI, 15.5 µM (inactive); in the test with SNB-19 it was > 100 µM (inactive); in the test on A498 it was > 100 µM (inactive); with SF-295, > 100 µM (inactive). Besides, the GI50 is > 100 µM (inactive) in the test on HOP-62; 30.3 µM (inactive) with HOP-92; 19.6 µM (inactive) in the test with OVCAR-4; 9.59 µM (inactive) in the test with NCI/ADR-RES; 21.1 µM (inactive) in the test with RXF 393; > 100 µM (inactive) in the test on ACHN. Also, the GI50 in the test on OVCAR-5 was 38.6 µM (inactive); in the test on UACC-257, 30.2 µM (inactive); with Hs-578T it was 26.4 µM (inactive); in the test on KM12, 42.3 µM (inactive); in the test with SK-OV-3, > 100 µM (inactive); with OVCAR-3, 40.7 µM (inactive).

On to `C/C(=N\Nc1nc2ccccc2o1)c1ccc2ccccc2n1`, for which the GI50 in the test on HCT-15 is 1.08 µM; in the test with SF-268, 5.06 µM (inactive); in the test with LOX IMVI, 2.86 µM (inactive); in the test on SNB-19, 8.26 µM (inactive); in the test with A498 it was 2.55 µM (inactive); in the test on SF-295 it was 3.72 µM (inactive). Moreover, the GI50 in the test on HOP-62 was 4.53 µM (inactive); with OVCAR-4, 1.3 µM (inactive); in the test on NCI/ADR-RES, 3.22 µM (inactive); with RXF 393 it was 18.5 µM (inactive); in the test with TK-10, 6.92 µM (inactive); with ACHN it was 1.47 µM (inactive). The GI50 in the test with OVCAR-5 is 2.93 µM (inactive); with UACC-257, 6.71 µM (inactive); with Hs-578T, 27.4 µM (inactive); in the test on KM12 it was 3.48 µM (inactive); in the test on SK-OV-3 it was 23.1 µM (inactive); in the test on OVCAR-3 it was 0.52 µM (active).

Take `CC(C)CC(N)C(=O)Nc1ccc2ccccc2c1` (centres undefined): the GI50 is more than 100 µM in the test with HCT-15; > 100 µM (inactive) in the test with SF-268; > 100 µM (inactive) in the test with LOX IMVI; > 100 µM (inactive) in the test on SNB-19; > 100 µM (inactive) in the test on A498; > 100 µM (inactive) with SF-295. The GI50 is > 100 µM (inactive) in the test on HOP-62; 9.4 µM (inactive) with OVCAR-4; > 100 µM (inactive) in the test with NCI/ADR-RES; > 100 µM (inactive) with RXF 393; > 100 µM (inactive) in the test with TK-10; > 100 µM (inactive) in the test on ACHN. The GI50 was > 100 µM (inactive) in the test with OVCAR-5; > 100 µM (inactive) with UACC-257; > 100 µM (inactive) with Hs-578T; 0.316 µM (active) in the test with KM12; > 100 µM (inactive) with SK-OV-3; 8.2 µM (inactive) in the test with OVCAR-3.

With `CCOC(=O)c1c[nH]c(C(=O)C=[N+]=[N-])c1C1CCN(CC)C1=S` (centres undefined), the GI50 in the test with HCT-15 is more than 100 µM; in the test with SF-268 it was > 100 µM (inactive); in the test with SNB-19, > 100 µM (inactive); with A498 it was > 100 µM (inactive); in the test on SF-295, > 100 µM (inactive); with HOP-62, > 100 µM (inactive). For the same molecule, the GI50 in the test on HOP-92, in the test with OVCAR-4, in the test on NCI/ADR-RES, in the test on RXF 393, in the test with TK-10 and with ACHN was > 100 µM (inactive) throughout. The GI50 in the test with OVCAR-5 was > 100 µM (inactive); in the test with UACC-257, > 100 µM (inactive); with Hs-578T, > 100 µM (inactive); in the test on KM12, > 100 µM (inactive); in the test with SK-OV-3, > 100 µM (inactive); in the test with OVCAR-3 it was 94 µM (inactive).

Regarding `COC(=O)c1c(O)ccc2c1c1c(n2Cc2ccc(Cl)cc2Cl)C(=O)c2ccccc2C1`, the GI50 was 42.7 µM with HCT-15; 32.5 µM (inactive) with SF-268; 27 µM (inactive) in the test with LOX IMVI; 61.7 µM (inactive) in the test on SNB-19; > 100 µM (inactive) in the test with A498; > 100 µM (inactive) in the test on HOP-62. Further, the GI50 was 27.1 µM (inactive) in the test on OVCAR-4; 34 µM (inactive) with NCI/ADR-RES; 31 µM (inactive) in the test on RXF 393; > 100 µM (inactive) in the test on TK-10; 42.2 µM (inactive) with UACC-257; 93.8 µM (inactive) in the test with Hs-578T. For the same molecule, the GI50 is 22 µM (inactive) in the test with KM12, 47.9 µM (inactive) in the test on SK-OV-3 and 49.2 µM (inactive) in the test with OVCAR-3.

For the molecule `CC(C)(C)c1ccc(O)c(C(c2ccc([N+](=O)[O-])cc2)c2cc(C(C)(C)C)ccc2O)c1`, the GI50 in the test on HCT-15 is 2.13 µM; in the test on SF-268, 1.63 µM (inactive); with SNB-19 it was 2.41 µM (inactive); in the test with A498, 2.11 µM (inactive); with SF-295, 1.98 µM (inactive); in the test with HOP-62, 1.85 µM (inactive). For the same molecule, the GI50 in the test with HOP-92 is 2.02 µM (inactive); in the test on OVCAR-4, 1.85 µM (inactive); in the test on NCI/ADR-RES, 2.73 µM (inactive); in the test on RXF 393, 2.07 µM (inactive); in the test on TK-10, 2.53 µM (inactive); in the test on ACHN, 1.85 µM (inactive). For the same molecule, the GI50 with OVCAR-5 was 1.82 µM (inactive); in the test on UACC-257 it was 1.79 µM (inactive); in the test on Hs-578T, 3.61 µM (inactive); in the test with KM12, 1.89 µM (inactive); in the test on SK-OV-3, 2.11 µM (inactive); in the test with OVCAR-3, 1.79 µM (inactive).

Consider `O=C(O)c1c(O)c2cc(Br)ccc2oc1=O`, for which the GI50 with HCT-15 is more than 100 µM; with SF-268, > 100 µM (inactive); with LOX IMVI, > 100 µM (inactive); in the test on SNB-19, > 100 µM (inactive); with A498, > 100 µM (inactive); in the test with SF-295, > 100 µM (inactive). For the same molecule, the GI50 in the test with HOP-62 was > 100 µM (inactive); with HOP-92, 72.1 µM (inactive); with OVCAR-4, > 100 µM (inactive); with NCI/ADR-RES, > 100 µM (inactive); in the test on RXF 393 it was > 100 µM (inactive); in the test with TK-10, > 100 µM (inactive). In addition, the GI50 with ACHN, with OVCAR-5, in the test on UACC-257, in the test with Hs-578T and with OVCAR-3 was > 100 µM (inactive) each time.

For `C[C@H](CCC(=O)O)[C@H]1CC[C@H]2[C@@H]3[C@H](O)[C@H](O)[C@@H]4C[C@H](O)CC[C@]4(C)[C@H]3CC[C@]12C` [HYOCHOLIC ACID], the GI50 with HCT-15 is more than 100 µM; in the test on SF-268, > 100 µM (inactive); in the test with LOX IMVI, 30.2 µM (inactive); in the test with SNB-19, > 100 µM (inactive); with A498, > 100 µM (inactive); in the test with HOP-62, > 100 µM (inactive). The GI50 in the test with HOP-92, in the test on OVCAR-4, in the test on NCI/ADR-RES, in the test with RXF 393, in the test on TK-10 and with ACHN was > 100 µM (inactive) in each case. The GI50 in the test on OVCAR-5, with UACC-257, in the test with Hs-578T and with KM12 was > 100 µM (inactive) each time.

`COc1ccccc1N1C(=O)C2C3c4ccccc4C(OC(C)=O)(c4ccccc43)C2C1=O` (centres undefined): the GI50 is more than 100 µM with HCT-15; 30.8 µM (inactive) with SF-268; > 100 µM (inactive) with LOX IMVI; 17.1 µM (inactive) in the test on SNB-19; > 100 µM (inactive) in the test on A498; 78.7 µM (inactive) in the test on SF-295. For the same molecule, the GI50 in the test with HOP-62 was 97.9 µM (inactive); with OVCAR-4, 30.4 µM (inactive); in the test on NCI/ADR-RES it was > 100 µM (inactive); with RXF 393, > 100 µM (inactive); with TK-10 it was > 100 µM (inactive); in the test on ACHN, > 100 µM (inactive). In addition, the GI50 is > 100 µM (inactive) with OVCAR-5; > 100 µM (inactive) in the test with UACC-257; 14.8 µM (inactive) in the test on Hs-578T; 77.4 µM (inactive) with KM12; > 100 µM (inactive) with SK-OV-3; > 100 µM (inactive) with OVCAR-3.

For `Cc1ccc(C)c(COCCOCn2cc(N3CCOCC3)c(=O)[nH]c2=O)c1`, the GI50 in the test on HCT-15 was more than 100 µM; with SF-268, > 100 µM (inactive); with LOX IMVI it was > 100 µM (inactive); with SNB-19 it was > 100 µM (inactive); with A498, > 100 µM (inactive); in the test with SF-295, > 100 µM (inactive). The GI50 in the test with HOP-92, in the test with NCI/ADR-RES, with RXF 393, in the test with TK-10, with ACHN and with OVCAR-5 was > 100 µM (inactive) each time. For the same molecule, the GI50 was > 100 µM (inactive) with UACC-257, 54.6 µM (inactive) in the test on Hs-578T, > 100 µM (inactive) with KM12 and > 100 µM (inactive) in the test on SK-OV-3.

These data come from ChEMBL document CHEMBL1201862, “PubChem BioAssay data set” (2004).
